Data as given in publication PMC7961521 (2021).

Key:
[1] = tested on: 4G (DNA, G4) AGGGTTAGGGTTAGGGTTAGGGTTACCTAGGCATCCTCCAGTTCCTGGAGTCAGTG; assay: fluorescent dye displacement; conditions: 100 mM KCl; 10 mM Tris-HCl pH 7.2; B6,5 1 µM displaced; 0.5 µM nucleic acid
[2] = tested on: RG4 (RNA, G4) AAGGAAGGGGAAGUCAGGUGGGGCCUGGGGAACCAGGAAGCGGGGAACAGG; assay: fluorescent dye displacement; conditions: 100 mM KCl; 10 mM Tris-HCl pH 7.2; B6,5 1 µM displaced; 0.5 µM nucleic acid; 1 equivalent of ligand
[3] = tested on: 3G (DNA, G4) TTAGGGTTAGGGTTAGGGTTACCTAGGCATCCTCCAGTTCCTGGAGTCAGTG; assay: fluorescent dye displacement; conditions: 100 mM KCl; 10 mM Tris-HCl pH 7.2; B6,5 1 µM displaced; 0.5 µM nucleic acid
[4] = tested on: 4G template annealed to primer P31 (DNA, G4) AGGGTTAGGGTTAGGGTTAGGGTTACCTAGGCATCCTCCAGTTCCTGGAGTCAGTG/CACTGACTCCAGGAACTGGAGGATGCCTAGG; assay: Taq polymerase stop assay; conditions: 100 mM KCl, Mg2+; Tris-HCl pH 8.0; 0 to 100 µM ligand; extension at 40 °C
[5] = tested on: c49 (C49) template annealed to primer H50/c49 (DNA, G4) TGAGGGTGGGGAGGGTGGGGAAGCCACCGCAATTGCTATAGTGAGTCGT/ACGACTCACTATAGCAATTGCG; assay: Taq polymerase stop assay; conditions: 100 mM KCl, Mg2+; Tris-HCl pH 8.0; extension at 50 °C
[6] = tested on: 3G template annealed to primer P31 (DNA, G4) TTAGGGTTAGGGTTAGGGTTACCTAGGCATCCTCCAGTTCCTGGAGTCAGTG/CACTGACTCCAGGAACTGGAGGATGCCTAGG; assay: Taq polymerase stop assay; conditions: 100 mM KCl, Mg2+; Tris-HCl pH 8.0; 0 to 100 µM ligand; extension at 40 °C
[7] = tested on: 3G (DNA, G4) TTAGGGTTAGGGTTAGGGTTACCTAGGCATCCTCCAGTTCCTGGAGTCAGTG; assay: fluorescence, reporter dye in displacement assay; conditions: 100 mM KCl; 10 mM Tris-HCl pH 7.2; dye 1 µM, DNA 0.5 µM
[8] = tested on: RG4 (RNA, G4) AAGGAAGGGGAAGUCAGGUGGGGCCUGGGGAACCAGGAAGCGGGGAACAGG; assay: fluorescence Job's plot; conditions: 100 mM KCl; 1×PBS pH 7.4, 37 °C; total concentration 5 µM
[9] = tested on: 4G (DNA, G4) AGGGTTAGGGTTAGGGTTAGGGTTACCTAGGCATCCTCCAGTTCCTGGAGTCAGTG; assay: fluorescence Job's plot; conditions: 100 mM KCl; 1×PBS pH 7.4, 37 °C; total concentration 5 µM
[10] = tested on: H50 template annealed to primer H50/c49 (DNA, G4) AGGGTTAGGGTTAGGGTTAGGGGCCACCGCAATTGCTATAGTGAGTCGT/ACGACTCACTATAGCAATTGCG; assay: Taq polymerase stop assay; conditions: 100 mM KCl, Mg2+; Tris-HCl pH 8.0; extension at 40 °C
[11] = tested on: 4G (DNA, G4) AGGGTTAGGGTTAGGGTTAGGGTTACCTAGGCATCCTCCAGTTCCTGGAGTCAGTG; assay: fluorescence, reporter dye in displacement assay; conditions: 100 mM KCl; 10 mM Tris-HCl pH 7.2; dye 1 µM, DNA 0.5 µM

Structure (SMILES)	binding [1]	% displacement of B6,5 [2]	binding [3]	binding [7]	further results
C[n+]1ccc(-c2c3nc(c(-c4cc[n+](C)cc4)c4ccc([nH]4)c(-c4cc[n+](C)cc4)c4nc(c(-c5cc[n+](C)cc5)c5ccc2[nH]5)C=C4)C=C3)cc1	yes	> 60%	yes	–	–
O=C(/C=C/C=C/c1ccc2c(c1)OCO2)N1CCCCC1	yes	–	weak	–	–
O=C(c1cc(Cc2n[nH]c(=O)c3ccccc23)ccc1F)N1CCN(C(=O)C2CC2)CC1	yes	> 60%	weak	–	–
C1=C2Sc3ccccc3N2CCCCCCN2C(=C/C=C/C=C/c3sc4ccccc4[n+]3CCCCCC[n+]3c(sc4ccccc43)/C=C/C=C/1)Sc1ccccc12	–	–	–	yes	binding [4]: yes; binding [5]: yes; binding [6]: yes; binding [8]: yes; binding [9]: yes; binding [10]: yes
CN1C(=Cc2cc[n+](C)c3ccccc23)Sc2ccccc21	–	–	–	yes	binding [11]: yes
CN1CCC[C@H]1CCNC(=O)c1cn2c3c(c(N4CCC(c5cnccn5)C4)c(F)cc3c1=O)Oc1cc3ccccc3cc1-2 (some centres unmarked)	yes	> 60%	yes	–	–
